From patent US9056843B2, “Trifluoromethyl-oxadiazole derivatives and their use in the treatment of disease” (NOVARTIS AG, priority 2011, dated 2015)

How the values were obtained:
Format in all cases: biochemical
[1] = target: Human recombinant full length HDAC1 (Homo sapiens (Human), UniProt Q13547); assay: Test 3: HDAC1 assay; conditions: substrate 5 μM acetyl-Gly-Ala-Lys(acetyl)-AMC
Experimental: (§1) Control wells with HDAC4 only (positive control) and without HDAC4 (negative control) were included on the microplate. Bovine trypsin (4.5 μl of a 300 nM solution) was added and the plate incubated for additional 15 minutes at room temperature. The plate was placed in a fluorescence microplate reader, and read at an excitation wavelength of 360 nm and an emission wavelength of 450 nm with a 10 nm bandpath. Fluorescence values for all wells containing HDAC4 (positive control and wells with test compound) were corrected by subtracting negative control fluorescence values, and IC50 values were calculated by fitting the dose-response curves to a 4-parameter logistic function.
Test 3: HDAC1 Assay Description
A similar assay procedure as described in Test 2 was used for HDAC1. Human recombinant full length HDAC1 expressed in a baculovirus expression system was purchased from BPS BioSciences (San Diego, Calif., U.S.A.). The substrate used in the […] assay was 5 μM of acetyl-Gly-Ala-Lys(acetyl)-AMC.

[2] = target: Human recombinant full length HDAC6 (Homo sapiens (Human), UniProt Q9UBN7); assay: Test 4: HDAC6 assay; conditions: Test 4; substrate 5 μM acetyl-Gly-Ala-Lys(acetyl)-AMC
Sequence of Human recombinant full length HDAC6 (Q9UBN7 whole entry): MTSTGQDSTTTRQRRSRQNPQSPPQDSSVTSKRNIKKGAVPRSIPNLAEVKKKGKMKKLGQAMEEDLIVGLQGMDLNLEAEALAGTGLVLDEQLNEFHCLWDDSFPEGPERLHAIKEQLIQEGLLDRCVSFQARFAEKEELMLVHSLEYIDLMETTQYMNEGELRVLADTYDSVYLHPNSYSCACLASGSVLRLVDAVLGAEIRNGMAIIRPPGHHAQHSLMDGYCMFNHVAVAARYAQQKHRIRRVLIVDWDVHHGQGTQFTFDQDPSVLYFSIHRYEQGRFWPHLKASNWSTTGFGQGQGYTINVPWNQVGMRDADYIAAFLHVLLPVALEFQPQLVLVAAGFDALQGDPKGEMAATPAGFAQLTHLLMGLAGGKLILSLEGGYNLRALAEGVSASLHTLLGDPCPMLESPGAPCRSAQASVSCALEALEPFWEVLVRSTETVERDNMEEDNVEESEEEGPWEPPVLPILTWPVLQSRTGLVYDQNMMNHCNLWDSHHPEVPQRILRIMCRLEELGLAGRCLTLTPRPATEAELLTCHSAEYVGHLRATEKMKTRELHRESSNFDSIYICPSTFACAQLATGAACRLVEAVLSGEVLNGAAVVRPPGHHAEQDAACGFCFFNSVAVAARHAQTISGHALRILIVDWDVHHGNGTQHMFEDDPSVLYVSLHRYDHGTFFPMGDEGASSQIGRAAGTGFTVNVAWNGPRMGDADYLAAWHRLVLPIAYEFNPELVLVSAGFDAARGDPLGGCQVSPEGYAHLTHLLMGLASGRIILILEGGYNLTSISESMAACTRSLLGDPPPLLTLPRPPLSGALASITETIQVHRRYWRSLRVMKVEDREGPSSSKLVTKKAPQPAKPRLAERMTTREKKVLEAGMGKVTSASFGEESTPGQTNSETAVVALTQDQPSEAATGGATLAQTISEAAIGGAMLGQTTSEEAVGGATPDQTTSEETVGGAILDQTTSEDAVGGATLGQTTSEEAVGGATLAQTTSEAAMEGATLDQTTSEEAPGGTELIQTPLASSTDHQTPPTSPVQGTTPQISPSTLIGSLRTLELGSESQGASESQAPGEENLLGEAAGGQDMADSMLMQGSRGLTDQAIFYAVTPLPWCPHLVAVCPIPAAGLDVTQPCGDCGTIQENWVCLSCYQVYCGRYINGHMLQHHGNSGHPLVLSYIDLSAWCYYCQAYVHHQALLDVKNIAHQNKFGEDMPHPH
Experimental: as §1
Test 4: HDAC6 Assay Description
A similar assay procedure as described in Test 2 was used for HDAC6. Human recombinant full length HDAC6 expressed in a baculovirus expression system was purchased from BPS BioSciences (San Diego, Calif., U.S.A.). The substrate used in the […] assay was 5 μM of acetyl-Gly-Ala-Lys(acetyl)-AMC.

[3] = target: Human recombinant HDAC4 (Homo sapiens (Human), UniProt P56524); assay: Test 2: HDAC4 assay (fluorogenic substrate, 5 μM acetyl-Gly-Ala-Lys(ε-trifluoroacetyl)-AMC); conditions: Test 2 (values without asterisk)
Sequence of Human recombinant HDAC4 (P56524 2-1084): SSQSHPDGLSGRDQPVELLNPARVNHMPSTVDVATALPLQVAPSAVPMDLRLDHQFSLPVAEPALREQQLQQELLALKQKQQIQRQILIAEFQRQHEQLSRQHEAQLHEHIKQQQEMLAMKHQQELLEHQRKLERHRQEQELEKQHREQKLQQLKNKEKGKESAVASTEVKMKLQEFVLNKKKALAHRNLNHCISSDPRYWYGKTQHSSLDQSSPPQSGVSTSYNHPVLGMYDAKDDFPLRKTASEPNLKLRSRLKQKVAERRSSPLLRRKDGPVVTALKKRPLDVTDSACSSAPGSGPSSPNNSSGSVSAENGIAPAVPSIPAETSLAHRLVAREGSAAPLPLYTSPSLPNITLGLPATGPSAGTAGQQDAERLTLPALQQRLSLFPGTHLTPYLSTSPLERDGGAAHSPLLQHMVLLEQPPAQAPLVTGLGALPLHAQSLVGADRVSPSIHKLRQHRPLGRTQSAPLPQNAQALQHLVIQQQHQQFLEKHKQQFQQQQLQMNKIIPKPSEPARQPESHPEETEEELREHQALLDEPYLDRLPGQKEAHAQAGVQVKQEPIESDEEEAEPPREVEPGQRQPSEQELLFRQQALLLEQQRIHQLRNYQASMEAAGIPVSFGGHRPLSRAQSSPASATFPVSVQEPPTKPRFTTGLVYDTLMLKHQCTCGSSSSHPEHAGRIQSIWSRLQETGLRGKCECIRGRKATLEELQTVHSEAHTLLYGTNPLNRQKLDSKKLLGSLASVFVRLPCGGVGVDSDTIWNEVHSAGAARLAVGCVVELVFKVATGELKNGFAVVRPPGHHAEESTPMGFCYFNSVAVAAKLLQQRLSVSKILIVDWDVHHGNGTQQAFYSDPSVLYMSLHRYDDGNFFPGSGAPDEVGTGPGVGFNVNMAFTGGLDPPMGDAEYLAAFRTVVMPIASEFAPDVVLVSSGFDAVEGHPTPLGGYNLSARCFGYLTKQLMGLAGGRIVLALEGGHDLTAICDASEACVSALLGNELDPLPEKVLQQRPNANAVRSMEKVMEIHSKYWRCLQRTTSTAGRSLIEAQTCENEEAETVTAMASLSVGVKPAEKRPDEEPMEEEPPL
Experimental: Test 2: HDAC4 Assay Description
as §1

Sequence of Human recombinant full length HDAC1 (Q13547 whole entry): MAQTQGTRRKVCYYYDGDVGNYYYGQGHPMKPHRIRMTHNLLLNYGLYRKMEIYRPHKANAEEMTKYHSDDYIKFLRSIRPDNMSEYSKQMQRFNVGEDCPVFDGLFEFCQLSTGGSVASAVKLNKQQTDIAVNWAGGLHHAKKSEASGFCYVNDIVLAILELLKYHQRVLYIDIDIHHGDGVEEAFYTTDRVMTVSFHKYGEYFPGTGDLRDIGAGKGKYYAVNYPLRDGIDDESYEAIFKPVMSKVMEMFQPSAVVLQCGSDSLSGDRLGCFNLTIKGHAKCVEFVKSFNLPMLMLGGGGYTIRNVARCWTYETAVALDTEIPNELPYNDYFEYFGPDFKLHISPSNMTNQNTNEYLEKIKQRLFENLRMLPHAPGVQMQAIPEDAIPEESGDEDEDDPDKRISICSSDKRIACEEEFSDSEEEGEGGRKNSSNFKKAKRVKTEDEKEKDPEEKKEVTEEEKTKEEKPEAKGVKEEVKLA

IC50 [1] | IC50 [2] | IC50 [3] | SMILES
> 10 µM | > 10 µM | 780 nM | CNC(=O)CNC(=O)c1ccc(-c2noc(C(F)(F)F)n2)cc1 [Example 63, N-(2-(methylamino)-2-oxoethyl)-4-(5-(trifluoromethyl)-1,2,4-oxadiazol-3-yl)benzamide]
> 10 µM | > 10 µM | 510 nM | CC(=O)N1CCC(NC(=O)c2ccc(-c3noc(C(F)(F)F)n3)cc2)CC1 [Example 64, N-(1-acetylpiperidin-4-yl)-4-(5-(trifluoromethyl)-1,2,4-oxadiazol-3-yl)benzamide]
> 10 µM | 4.6 µM | 240 nM | CN1C(C)(C)CC(NC(=O)c2ccc(-c3noc(C(F)(F)F)n3)cc2)CC1(C)C [Example 65, N-(1,2,2,6,6-pentamethylpiperidin-4-yl)-4-(5-(trifluoromethyl)-1,2,4-oxadiazol-3-yl)benzamide]
> 10 µM | 5.8 µM | 330 nM | CC(C)(C)OC(=O)N1CCC(NC(=O)c2ccc(-c3noc(C(F)(F)F)n3)cc2)C1 (stereo not drawn) [Example 66, Tert-butyl 3-(4-(5-(trifluoromethyl)-1,2,4-oxadiazol-3-yl)benzamido)pyrrolidine-1-carboxylate]
> 10 µM | 8.3 µM | 160 nM | COc1cc(NC(=O)c2ccc(-c3noc(C(F)(F)F)n3)cc2)ccn1 [Example 67, N-(2-methoxypyridin-4-yl)-4-(5-(trifluoromethyl)-1,2,4-oxadiazol-3-yl)benzamide]
> 10 µM | 5.3 µM | 170 nM | Cc1cc(NC(=O)c2ccc(-c3noc(C(F)(F)F)n3)cc2)cc(C)n1 [Example 68, N-(2,6-dimethylpyridin-4-yl)-4-(5-(trifluoromethyl)-1,2,4-oxadiazol-3-yl)benzamide]
> 10 µM | 6.8 µM | 290 nM | CC(C)(C)c1cc(NC(=O)c2ccc(-c3noc(C(F)(F)F)n3)cc2)ccn1 [Example 69, N-(2-(tert-butyl)pyridin-4-yl)-4-(5-(trifluoromethyl)-1,2,4-oxadiazol-3-yl)benzamide]
> 10 µM | > 10 µM | 920 nM | O=C(Nc1ccnc(F)c1)c1ccc(-c2noc(C(F)(F)F)n2)cc1 [Example 71, N-(2-fluoropyridin-4-yl)-4-(5-(trifluoromethyl)-1,2,4-oxadiazol-3-yl)benzamide]
> 10 µM | > 10 µM | 140 nM | O=C(Nc1ccnc(O)c1)c1ccc(-c2noc(C(F)(F)F)n2)cc1 [Example 72, N-(2-hydroxypyridin-4-yl)-4-(5-(trifluoromethyl)-1,2,4-oxadiazol-3-yl)benzamide]
> 10 µM | 6.1 µM | 53 nM | N#Cc1cc(NC(=O)c2ccc(-c3noc(C(F)(F)F)n3)cc2)ccn1 [Example 73, N-(2-cyanopyridin-4-yl)-4-(5-(trifluoromethyl)-1,2,4-oxadiazol-3-yl)benzamide]
> 10 µM | 8.6 µM | 190 nM | O=C(Nc1ccnc(C(F)(F)F)c1)c1ccc(-c2noc(C(F)(F)F)n2)cc1 [Example 74, 4-(5-(Trifluoromethyl)-1,2,4-oxadiazol-3-yl)-N-(2-(trifluoromethyl)pyridin-4-yl)benzamide]
> 10 µM | > 10 µM | 160 nM | O=C(Nc1ccnc(Cl)c1)c1ccc(-c2noc(C(F)(F)F)n2)cc1 [Example 75, N-(2-chloropyridin-4-yl)-4-(5-(trifluoromethyl)-1,2,4-oxadiazol-3-yl)benzamide]
> 10 µM | 3.9 µM | 150 nM | O=C(NC1CCNCC1)c1ccc(-c2noc(C(F)(F)F)n2)cc1 [Example 76, N-(piperidin-4-yl)-4-(5-(trifluoromethyl)-1,2,4-oxadiazol-3-yl)benzamide]
> 10 µM | > 10 µM | 350 nM | NC1CCCCC1NC(=O)c1ccc(-c2noc(C(F)(F)F)n2)cc1 (stereo not drawn) [Example 77, N-(2-aminocyclohexyl)-4-(5-(trifluoromethyl)-1,2,4-oxadiazol-3-yl)benzamide]
> 10 µM | 7 µM | 30 nM | O=C(NCC1CCCCN1)c1ccc(-c2noc(C(F)(F)F)n2)cc1 (stereo not drawn) [Example 78, N-(piperidin-2-ylmethyl)-4-(5-(trifluoromethyl)-1,2,4-oxadiazol-3-yl)benzamide]
> 10 µM | > 10 µM | 800 nM | O=C(NC1CCCNC1)c1ccc(-c2noc(C(F)(F)F)n2)cc1 (stereo not drawn) [Example 79, N-(piperidin-3-yl)-4-(5-(trifluoromethyl)-1,2,4-oxadiazol-3-yl)benzamide]
> 10 µM | > 10 µM | 470 nM | O=C(NC1CCNC1)c1ccc(-c2noc(C(F)(F)F)n2)cc1 (stereo not drawn) [Example 80, N-(pyrrolidin-3-yl)-4-(5-(trifluoromethyl)-1,2,4-oxadiazol-3-yl)benzamide]
> 10 µM | > 10 µM | 34 nM | C[C@H](CN(C)C)NC(=O)c1ccc(-c2noc(C(F)(F)F)n2)cc1 [Example 81, (R)—N-(1-(dimethylamino)propan-2-yl)-4-(5-(trifluoromethyl)-1,2,4-oxadiazol-3-yl)benzamide]
> 10 µM | > 10 µM | 120 nM | C[C@@H](CN(C)C)NC(=O)c1ccc(-c2noc(C(F)(F)F)n2)cc1 [Example 82, (S)—N-(1-(dimethylamino)propan-2-yl)-4-(5-(trifluoromethyl)-1,2,4-oxadiazol-3-yl)benzamide]
> 10 µM | > 10 µM | 15 nM | CC(C)[C@@H](CN(C)C)NC(=O)c1ccc(-c2noc(C(F)(F)F)n2)cc1 [Example 83, (S)—N-(1-(dimethylamino)-3-methylbutan-2-yl)-4-(5-(trifluoromethyl)-1,2,4-oxadiazol-3-yl)benzamide]
> 10 µM | > 10 µM | 490 nM | CC(C)[C@H](CN(C)C)NC(=O)c1ccc(-c2noc(C(F)(F)F)n2)cc1 [Example 84, (R)—N-(1-(dimethylamino)-3-methylbutan-2-yl)-4-(5-(trifluoromethyl)-1,2,4-oxadiazol-3-yl)benzamide]
> 10 µM | > 10 µM | 48 nM | CC(C)C[C@H](CN(C)C)NC(=O)c1ccc(-c2noc(C(F)(F)F)n2)cc1 [Example 85, (R)—N-(1-(dimethylamino)-4-methylpentan-2-yl)-4-(5-(trifluoromethyl)-1,2,4-oxadiazol-3-yl)benzamide]
> 10 µM | > 10 µM | 26 nM | O=C(N[C@@H]1CCNC1)c1ccc(-c2noc(C(F)(F)F)n2)cc1 [Example 86, (R)—N-(pyyrrolidin-3-yl)-4-(5-(trifluoromethyl)-1,2,4-oxadiazol-3-yl)benzamide]
> 10 µM | 4.7 µM | 12 nM | C[C@H](CN(C)C)NC(=O)c1ccc(-c2noc(C(F)(F)F)n2)cc1F [Example 88, (R)—N-(1-(dimethylamino)propan-2-yl)-2-fluoro-4-(5-(trifluoromethyl)-1,2,4-oxadiazol-3-yl)benzamide]
> 10 µM | > 10 µM | 45 nM | CC(C)[C@H](CN(C)C)NC(=O)c1ccc(-c2noc(C(F)(F)F)n2)cc1F [Example 89, (R)—N-(1-(dimethylamino)-3-methylbutan-2-yl)-2-fluoro-4-(5-(trifluoromethyl)-1,2,4-oxadiazol-3-yl)benzamide]
> 10 µM | 2.5 µM | 440 nM | Cc1cc(NC(=O)c2ccc(-c3noc(C(F)(F)F)n3)cc2F)cc(C)n1 [Example 90, N-(2,6-dimethylpyridin-4-yl)-2-fluoro-4-(5-(trifluoromethyl)-1,2,4-oxadiazol-3-yl)benzamide]
> 10 µM | 5.1 µM | 500 nM | CC(CO)NC(=O)c1ccc(-c2noc(C(F)(F)F)n2)cc1F (stereo not drawn) [Example 91, 2-fluoro-N-(1-hydroxyypropan-2-yl)-4-(5-(trifluoromethyl)-1,2,4-oxadiazol-3-yl)benzamide]
> 6.8 µM | 4 µM | 85 nM | CN(C)C[C@@H](Cc1ccccc1)NC(=O)c1ccc(-c2noc(C(F)(F)F)n2)cc1 [Example 92, (R)—N-(1-(dimethylamino)-3-phenylpropan-2-yl)-4-(5-(trifluoromethyl)-1,2,4-oxadiazol-3-yl)benzamide]
> 10 µM | 4.9 µM | 190 nM | CN(C)C[C@H](Cc1ccccc1)NC(=O)c1ccc(-c2noc(C(F)(F)F)n2)cc1 [Example 93, (S)—N-(1-(dimethylamino)-3-phenylpropan-2-yl)-4-(5-(trifluoromethyl)-1,2,4-oxadiazol-3-yl)benzamide]
> 10 µM | > 10 µM | 520 nM | CC(CN(C)C)N(C)C(=O)c1ccc(-c2noc(C(F)(F)F)n2)cc1 (stereo not drawn) [Example 94, N-(1-(dimethylamino)propan-2-yl)-N-methyl-4-(5-(trifluoromethyl)-1,2,4-oxadiazol-3-yl)benzamide]
